Assay results as given in patent US20260374766A1, “METHODS FOR TREATING CANCER” (Antares Therapeutics, Inc., priority 2022, published 2026).
pIC50, pKd: −log10 of the molar value. Where two headings read alike, the source gives them in different places.

How the values were obtained:
H1299 p53 R273H = test: Cell Proliferation Assay (CellTiter-Glo, CTG), H1299 p53 R273H (NClH1299-inducible p53 R273H); format: cell-based; conditions: Homo sapiens, NCI-H1299, 120 h, CellTiter-Glo, 5 days
Outline: (§1)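 NClH1299 lines stably transduced with Tet-inducible p53 Y220C or R273H, plus NUGC3, were treated with compound for 5 days at 250-500 cells/well. IC50 derived from CellTiter-Glo luminescent signal after 10 min room-temperature incubation.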

NUGC3 p53 Y220C = test: Cell Proliferation Assay (CellTiter-Glo, CTG), NUGC3 p53 Y220C; format: cell-based; conditions: Homo sapiens, NUGC-3, 120 h, CellTiter-Glo, 5 days
Outline: as §1

[1] = target: T1, p53 Y220C mutant protein (amino acid residues 94-293) (Homo sapiens, UniProt P04637, Y220C); test: Surface Plasmon Resonance (SPR) assay, Kd_kinetic; format: binding
T1 construct: p53 Y220C mutant protein (amino acid residues 94-293)
Outline: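 Temperature held at 16 or 20 °C during Biacore 8K runs. Buffer: 50 mM Tris, pH 7.5, 100 mM NaCl, 1 mM DTT, 0.01% Brij35, 0.05% Tween-20, 1% DMSO.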

H1299 p53 Y220C = test: Cell Proliferation Assay (CellTiter-Glo, CTG), H1299 p53 Y220C (NClH1299-inducible p53 Y220C); format: cell-based; conditions: Homo sapiens, NCI-H1299, 120 h, CellTiter-Glo, 5 days
Outline: as §1

p53 Y220C = p53 Y220C (Homo sapiens, UniProt P04637, Y220C); test: Luciferase Reporter Assay (Luc), p53 response element, NClH1299 cells with inducible p53 Y220C; format: cell-based
Outline: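 Luminescence readout (One-Glo, 5 min shaking at RT, read at once) after 6 h compound exposure; cells pre-induced 24 h with 0.5 ug/mL doxycycline, 5,000/well.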

[2] = target: T1, p53 Y220C mutant protein (amino acid residues 94-293); test: Thermal Shift Assay (TSA), dTM; format: binding; conditions: for ΔTm at 10 µM: 10 uM compound; for ΔTm at 100 µM: 100 uM compound
Outline: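 Recombinant p53 Y220C core (residues 94-293) at 5 μM was incubated with 10 μM or 100 μM compound for 3 hours at 20 °C in 20 mM HEPES pH7.4, 100 mM NaCl, 0.01% Pluronic F-127, 1% DMSO with 400-fold diluted Sypro Orange. Melting was followed from 30 °C to 50 °C at 0.03 °C/second, and TM came from a Boltzmann two-state fit.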

[3] = luciferase reporter, NClH1299 inducible p53 Y220C, 6 hour, 10 uM tool compound as positive control
[4] = thermal shift, read-out: TSA P53 Y220C dTM (10 uM)
[5] = thermal shift, read-out: TSA P53 Y220C dTM (100 uM)
[6] = SPR, kinetic KD, p53 Y220C, read-out: SPR P53 Y220C KD kinetic
[7] = luciferase reporter, NClH1299 inducible p53 Y220C, 6 hour, read-out: Luc P53 Y220C AC50
[8] = read-out: SPR P53 Y220C KD kinetic
[9] = NClH1299-inducible p53 R273H cells
[10] = SPR, p53 Y220C, read-out: SPR P53 Y220C KD kinetic
[11] = NClH1299-inducible p53 Y220C cells
[12] = AC50, luciferase reporter, NClH1299 inducible p53 Y220C, 6 hour, read-out: Luc P53 Y220C AC50
[13] = Emax, luciferase reporter, NClH1299 inducible p53 Y220C, 6 hour
[14] = p53 Y220C, read-out: TSA P53 Y220C dTM

Compound	pIC50 (H1299 p53 R273H; H1299 p53 R273H)	pIC50 (H1299 p53 Y220C; H1299 p53 Y220C)	Emax (p53 Y220C; [3]) [%]	ΔTm at 10 µM [2, 4] [°C]	ΔTm at 100 µM [2, 5] [°C]	pKd [1, 6]	AC50 (p53 Y220C; [7]) [nM]	pKd [1, 8]	pIC50 (H1299 p53 R273H; [9])	pKd [1, 10]	pIC50 (H1299 p53 Y220C; [11])	AC50 (p53 Y220C; [12]) [nM]	Emax (p53 Y220C; [13]) [%]	ΔTm at 10 µM [2, 14] [°C]	ΔTm at 100 µM [2, 14] [°C]	pIC50 (NUGC3 p53 Y220C; NUGC3 p53 Y220C)	pKd [1]	AC50 (p53 Y220C) [nM]	pIC50 (NUGC3 p53 Y220C; NUGC3 cells)
CNC(=O)c1ccc(OC)c(NCC#Cc2nc3c(NC4CC5(C4)CN(CC(F)F)C5)cccn3c2SC(F)(F)F)c1 [Example 204]	≤ 5.00	5.82 to 6.12	> 90	5 to 10	≥ 10	–	–	–	–	–	–	–	–	–	–	5.82 to 6.12	> 8.00	750 to 1500	–
CNC(=O)c1ccc(NCC#Cc2nc3c(N[C@@H]4CCN(C)C[C@@H]4F)nccn3c2SC(F)(F)F)c(OC)c1 [Example 206, 4-{[3-(8-{[(3S,4R)-3-fluoro-1-methylpiperidin-4-yl]amino}-3-[(trifluoromethyl)sulfanyl]imidazo[1,2-a]pyrazin-2-yl)prop-2-yn-1-yl]amino}-3-methoxy-N-methylbenzamide]	≤ 5.00	> 6.12	> 90	≥ 10	≥ 10	> 8.00	< 750	–	–	–	–	–	–	–	–	> 6.12	–	–	–
CNC(=O)c1ccc(NCC#Cc2nn3c(N[C@@H]4CCN(C)C[C@@H]4F)nccc3c2SC(F)F)c(OC)c1 [Example 215]	≤ 5.00	> 6.12	> 90	≥ 10	–	> 8.00	< 750	–	–	–	–	–	–	–	–	> 6.12	–	–	–
CNC(=O)c1ccc(OC)c(NCC#Cc2nc3c(N[C@@H]4CCNC[C@@H]4F)cccn3c2SC(F)(F)F)n1 [Example 217]	5.10 to 5.30	> 6.12	70 to 80	≥ 10	≥ 10	–	< 750	> 8.00	–	–	–	–	–	–	–	> 6.12	–	–	–
CNC(=O)c1ccc(OC)c(NCC#Cc2nc3c(N[C@@H]4CCNC[C@@H]4F)cccn3c2SC(F)(F)F)c1 [Example 218]	≤ 5.00	> 6.12	80 to 90	≥ 10	≥ 10	> 8.00	< 750	–	–	–	–	–	–	–	–	> 6.12	–	–	–
CNC(=O)c1ccc(OC)c(NCC#Cc2nc3c(N[C@@H]4CCNC[C@@H]4F)cccn3c2CC(F)(F)F)c1 [Example 222]	≤ 5.00	5.52 to 5.82	< 70	≥ 10	≥ 10	> 8.00	> 3000	–	–	–	–	–	–	–	–	> 6.12	–	–	–
CNC(=O)c1ccc(NCC#Cc2nn3c(N[C@@H]4CCN(C)C[C@@H]4F)cccc3c2SC(F)(F)F)c(OC)c1 [Example 223, 4-{[3-(7-{[(3S,4R)-3-fluoro-1-methylpiperidin-4-yl]amino}-3-[(trifluoromethyl)sulfanyl]pyrazolo[1,5-a]pyridin-2-yl)prop-2-yn-1-yl]amino}-3-methoxy-N-methylbenzamide]	–	–	–	–	–	–	–	–	≤ 5.00	> 8.00	> 6.12	< 750	80 to 90	≥ 10	≥ 10	–	–	–	> 6.12
COc1cc(C(N)=O)ccc1NCC#Cc1nn2c(N[C@@H]3CCN(C)C[C@@H]3F)cccc2c1SC(F)(F)F [Example 233]	–	–	–	–	–	–	–	–	5.00 to 5.10	> 8.00	> 6.12	< 750	80 to 90	≥ 10	–	–	–	–	> 6.12
CNC(=O)c1ccc(OC)c(NCC#Cc2nn3c(N[C@@H]4CCN(C)C[C@@H]4F)cccc3c2SC(F)(F)F)n1 [Example 234]	–	–	–	–	–	–	–	–	5.00 to 5.10	> 8.00	> 6.12	< 750	80 to 90	≥ 10	–	–	–	–	> 6.12
CNC(=O)c1ccc(OC)c(NCC#Cc2nn3c(N[C@@H]4CCNC[C@@H]4F)cccc3c2SC(F)(F)F)c1 [Example 236]	–	–	–	–	–	–	–	–	5.10 to 5.30	> 8.00	> 6.12	< 750	80 to 90	≥ 10	≥ 10	–	–	–	> 6.12
CNC(=O)c1ccc(OC)c(NCC#Cc2nn3c(N[C@@H]4CCNC[C@@H]4F)cccc3c2SC(F)(F)F)n1 [Example 237]	–	–	–	–	–	–	–	–	5.10 to 5.30	> 8.00	> 6.12	< 750	70 to 80	≥ 10	–	–	–	–	> 6.12
COc1cc(S(C)(=O)=O)ccc1NCC#Cc1nn2c(N[C@@H]3CCNC[C@@H]3F)cccc2c1SC(F)(F)F [Example 238]	–	–	–	–	–	–	–	–	5.10 to 5.30	> 8.00	> 6.12	< 750	80 to 90	≥ 10	–	–	–	–	> 6.12
CNC(=O)c1ccc(NCC#Cc2nc3c(N[C@@H]4CCN(C)C[C@@H]4F)cccn3c2SC(F)(F)F)c(C)c1 [Example 239]	–	–	–	–	–	–	–	–	5.00 to 5.10	> 8.00	> 6.12	< 750	> 90	≥ 10	≥ 10	–	–	–	> 6.12
CNC(=O)c1ccc(NCC#Cc2nc3c(NC4CCOCC4)cccn3c2SC(F)(F)F)c(OC)c1 [Example 241]	–	–	–	–	–	–	–	–	5.10 to 5.30	7.00 to 8.00	> 6.12	< 750	80 to 90	5 to 10	≥ 10	–	–	–	> 6.12

Continued, in another order:

pIC50 (H1299 p53 R273H; H1299 p53 R273H)	pIC50 (H1299 p53 Y220C; H1299 p53 Y220C)	Emax (p53 Y220C; [3]) [%]	ΔTm at 10 µM [2, 4] [°C]	ΔTm at 100 µM [2, 5] [°C]	pKd [1, 6]	AC50 (p53 Y220C; [7]) [nM]	pKd [1, 8]	pIC50 (H1299 p53 R273H; [9])	pKd [1, 10]	pIC50 (H1299 p53 Y220C; [11])	AC50 (p53 Y220C; [12]) [nM]	Emax (p53 Y220C; [13]) [%]	ΔTm at 10 µM [2, 14] [°C]	ΔTm at 100 µM [2, 14] [°C]	Compound	pIC50 (NUGC3 p53 Y220C; NUGC3 p53 Y220C)	pKd [1]	AC50 (p53 Y220C) [nM]	pIC50 (NUGC3 p53 Y220C; NUGC3 cells)
≤ 5.00	> 6.12	> 90	≥ 10	–	> 8.00	< 750	–	–	–	–	–	–	–	–	CNC(=O)c1ccc(OC)c(NCC#Cc2cc3c(N[C@@H]4CCN(C)C[C@@H]4F)nccn3c2SC(F)(F)F)n1 [Example 207]	> 6.12	–	–	–
≤ 5.00	> 6.12	80 to 90	≥ 10	–	> 8.00	< 750	–	–	–	–	–	–	–	–	CNC(=O)c1ccc(OC)c(NCC#Cc2nc3c(N[C@@H]4CCN(C)C[C@@H]4F)nccn3c2SC(F)(F)F)c1 [Example 212]	> 6.12	–	–	–
≤ 5.00	> 6.12	70 to 80	≥ 10	≥ 10	–	< 750	> 8.00	–	–	–	–	–	–	–	CNC(=O)c1ccc(OC)c(NCC#Cc2nc3c(N[C@@H]4CCN(C)C[C@@H]4F)cccn3c2CC(F)(F)F)n1 [Example 213]	> 6.12	–	–	–
5.10 to 5.30	> 6.12	80 to 90	5 to 10	5 to 10	> 8.00	< 750	–	–	–	–	–	–	–	–	CNC(=O)c1ccc(NCC#Cc2nn3c(N[C@@H]4CCN(C)C[C@@H]4F)cccc3c2SC(F)F)c(OC)c1 [Example 219, 4-[(3-{3-[(difluoromethyl)sulfanyl]-7-{[(3S,4R)-3-fluoro-1-methylpiperidin-4-yl]amino}pyrazolo[1,5-a]pyridin-2-yl}prop-2-yn-1-yl)amino]-3-methoxy-N-methylbenzamide]	> 6.12	–	–	–
–	–	–	–	–	–	–	–	≤ 5.00	7.00 to 8.00	5.82 to 6.12	750 to 1500	80 to 90	1 to 5	5 to 10	CNC(=O)c1ccc(NCC#Cc2nc3c(NC4COC4)cccn3c2SC(F)(F)F)c(OC)c1 [Example 225]	–	–	–	5.52 to 5.82
–	–	–	–	–	–	–	–	5.10 to 5.30	> 8.00	> 6.12	< 750	80 to 90	≥ 10	≥ 10	CNC(=O)c1ccc(OC)c(NCC#Cc2nn3c(N[C@@H]4CCN(C)C[C@@H]4F)cccc3c2SC(F)(F)F)c1 [Example 231]	–	–	–	> 6.12
–	–	–	–	–	–	–	–	5.10 to 5.30	> 8.00	> 6.12	750 to 1500	80 to 90	5 to 10	≥ 10	CNC(=O)c1ccc(NCC#Cc2nc3c(N[C@@H]4CCN(C)C4)cccn3c2SC(F)(F)F)c(OC)c1 [Example 242]	–	–	–	> 6.12
